Patent US20230053540A1, “TREATMENT OF LIVER INJURY” (Massachusetts Institute of Technology, priority 2019, published 2023)

Tested on: hepatocytes
Experiment: Seq-Well scRNA-Seq of hepatocytes after APAP overdose (signature scores, DEG vs untreated)
Format: in vivo, mouse
[1] = hepatocytes, cluster A48 (APAP) vs other treatment clusters
[2] = time point A6 vs untreated (UT)

## CC(=O)Nc1ccc(O)cc1 [APAP, acetaminophen]
[1]
  Rdh7 avg_logFC: 0.4684
  Reep6 avg_logFC: 0.6233
  Retsat avg_logFC: 0.7096
  Rgs16 avg_logFC: 0.4545
  Rpl38 avg_logFC: 0.3322
  Scand1 avg_logFC: 0.2707
  Serpina3m avg_logFC: 0.4034
  Serpina1d avg_logFC: 0.3053
  Serping1 avg_logFC: 0.5777
  Slc25a10 avg_logFC: 0.4313
  Slc25a20 avg_logFC: 0.3875
  Slc25a47 avg_logFC: 0.6175
  Slc27a5 avg_logFC: 0.4062
  Slc37a4 avg_logFC: 0.4461
  Slco1a4 avg_logFC: 0.5091
  Snord118 avg_logFC: 0.4771
  St3gal5 avg_logFC: 0.5549
  Sult1a1 avg_logFC: 0.4827
  Syvn1 avg_logFC: 0.3041
  Tcea3 avg_logFC: 0.3938
  Tef avg_logFC: 0.3394
  Tmbim4 avg_logFC: 0.3693
  Tmbim6 avg_logFC: 0.3713
  Ttc36 avg_logFC: 0.5638
  Ttpa avg_logFC: 0.4431
  Ttr avg_logFC: 0.4225
  Ugt2b5 avg_logFC: 0.4388
  Vnn3 avg_logFC: 0.3008
  Vtn avg_logFC: 0.5228
  Yipf3 avg_logFC: 0.2785
[2]
  avg_logFC 15-Sep: −0.4092
  avg_logFC 0610007P14Rik: −0.257
  avg_logFC 0610011F06Rik: −0.3037
  avg_logFC 1110008F13Rik: −0.3751
  avg_logFC 1110058L19Rik: −0.2581
  avg_logFC 1810022K09Rik: −0.3001
  avg_logFC 2010107E04Rik: −0.3182
  avg_logFC 3110043021Rik: 0.2694
  avg_logFC AA474408: 0.3471
  avg_logFC AW112010: −0.2981
  avg_logFC Aadat: −0.3186
  avg_logFC Abcc2: 0.2897
  avg_logFC Abcd3: −0.2718
  avg_logFC Abhd14b: −0.3937
  avg_logFC Acads: −0.3242
  avg_logFC Acbd5: −0.3952
  avg_logFC Acot13: −0.2886
  avg_logFC Actn4: 0.3124
  avg_logFC Adtrp: −0.3664
  avg_logFC Agpat2: −0.2982
  avg_logFC Ak2: −0.3451
  avg_logFC Akap11: 0.3464
  avg_logFC Akr1a1: −0.3269
  avg_logFC Akr1e1: −0.2582
  avg_logFC Amy1: −0.283
  avg_logFC Anapc13: −0.3642
  avg_logFC Ankrd11: 0.4156
  avg_logFC Anp32a: −0.317
  avg_logFC Anxa5: 0.3654
  avg_logFC Aox3: −0.3333
  avg_logFC Apc: 0.279
  avg_logFC Apcs: 0.2989
  avg_logFC Apom: −0.3024
  avg_logFC Aqp9: −0.3109
  avg_logFC Arl6ip1: −0.3649
  avg_logFC Atf4: 0.3411
  avg_logFC Atf6: 0.3778
  avg_logFC Atp1b1: 0.3702
  avg_logFC Atp2b1: 0.3321
  avg_logFC Atp5c1: −0.3476
  avg_logFC Atp5g3: −0.3002
  avg_logFC Atp5o: −0.3316
  avg_logFC BC005537: 0.3543
  avg_logFC Baat: −0.3086
  avg_logFC Baz1a: 0.2596
  avg_logFC Bckdha: −0.35
  avg_logFC Bet1: −0.2966
  avg_logFC Bhmt2: −0.3114
  avg_logFC Bnip3: −0.3362
  avg_logFC Bola3: −0.3689
  avg_logFC Bptf: 0.3245
  avg_logFC Bsg: −0.3152
  avg_logFC Bst2: −0.3156
  avg_logFC C8b: −0.3159
  avg_logFC C130074G19Rik: −0.3563
  avg_logFC Car5a: −0.3088
  avg_logFC Cars: 0.3158
  avg_logFC Cast: 0.4009
  avg_logFC Cebpb: −0.3617
  avg_logFC Cela1: −0.2723
  avg_logFC Cep85l: 0.2779
  avg_logFC Ces1f: −0.3126
  avg_logFC Cfhr1: −0.3253
  avg_logFC Chmp4b: 0.3002
  avg_logFC Chuk: 0.3724
  avg_logFC Cideb: −0.3684
  avg_logFC Cisd1: −0.3727
  avg_logFC Cldn2: −0.2511
  avg_logFC Cldn3: −0.3145
  avg_logFC Cnpy2: −0.3729
  avg_logFC Coq9: −0.3479
  avg_logFC Coro1c: 0.3067
  avg_logFC Cox6b1: −0.362
  avg_logFC Cox8a: −0.3993
  avg_logFC Cpb2: −0.3215
  avg_logFC Cpt1a: 0.2611
  avg_logFC Csde1: 0.3156
  avg_logFC Csrp3: −0.294
  avg_logFC Ctsc: 0.361
  avg_logFC Cxcl1: 0.3701
  avg_logFC Cybb: 0.3778
  avg_logFC Cyp4f14: −0.2959
  avg_logFC Cyp4f15: −0.2998
  avg_logFC Cyp27a1: −0.3735
  avg_logFC D10Jhu81e: −0.3957
  avg_logFC D17Wsu92e: 0.2525
  avg_logFC Ddah1: −0.312
  avg_logFC Ddx3y: 0.3395
  avg_logFC Derl2: −0.3317
  avg_logFC Dgat2: −0.3433
  avg_logFC Dhdh: −0.3348
  avg_logFC Dhrs4: −0.3321
  avg_logFC Dhx9: 0.3504
  avg_logFC Dnaja2: 0.3723
  avg_logFC Dnajc5: 0.3265
  avg_logFC Dnajc19: −0.316
  avg_logFC Dync1h1: 0.3796
  avg_logFC Dync1li1: 0.2624
  avg_logFC Ebp: −0.3553
  avg_logFC Echs1: −0.3316
  avg_logFC Edf1: −0.3817
  avg_logFC Eef1a1: 0.2826
  avg_logFC Eif3c: 0.302
  avg_logFC Eif4b: 0.3682
  avg_logFC Eprs: 0.3701
  avg_logFC Erbb2ip: 0.3332
  avg_logFC Esd: −0.2808
  avg_logFC Ethe1: −0.3334
  avg_logFC Etnk1: 0.316
  avg_logFC F10: −0.2719
  avg_logFC Fah: −0.2593
  avg_logFC Fam25c: −0.2977
  avg_logFC Fam214a: −0.2658
  avg_logFC Fbxo21: −0.2631
  avg_logFC Fcna: 0.3774
  avg_logFC Fdps: −0.2663
  avg_logFC Fkbp4: −0.3534
  avg_logFC Fus: 0.3393
  avg_logFC Gadd45g: −0.3554
  avg_logFC Gadd45gip1: −0.3041
  avg_logFC Gcdh: −0.3003
  avg_logFC Ghr: −0.3648
  avg_logFC Gjb1: −0.3166
  avg_logFC Glyctk: −0.2977
  avg_logFC Gm2788: −0.2831
  avg_logFC Gm4951: −0.3221
  avg_logFC Gm10800: 0.5626
  avg_logFC Gm24245: 0.5465
  avg_logFC Grhpr: −0.3531
  avg_logFC Gsr: 0.4128
  avg_logFC Gstm4: −0.3809
  avg_logFC Gyk: 0.3684
  avg_logFC Hibch: −0.3271
  avg_logFC Hipk3: 0.3394
  avg_logFC Hist1h1c: −0.3009
  avg_logFC Hmgcs1: −0.3491
  avg_logFC Hsd17b10: −0.3772
  avg_logFC Hsp90b1: −0.2615
  avg_logFC Hspa5: 0.2682
  avg_logFC Huwe1: 0.3879
  avg_logFC Ifrd1: 0.4904
  avg_logFC Il6ra: 0.3044
  avg_logFC Ipo5: 0.2687
  avg_logFC Ipo7: 0.3246
  avg_logFC Ivns1abp: 0.3566
  avg_logFC Jhdm1d: 0.3041
  avg_logFC Kif21a: 0.4042
  avg_logFC Lap3: −0.3644
  avg_logFC Larp4b: 0.3421
  avg_logFC Lcp1: 0.484
  avg_logFC Lrrfip2: 0.3731
  avg_logFC Lsmd1: −0.3131
  avg_logFC Macf1: 0.4042
  avg_logFC Mak16: 0.3171
  avg_logFC Map3k5: 0.3347
  avg_logFC Mbl2: −0.3465
  avg_logFC Mcee: −0.3199
  avg_logFC Mdh1: −0.3077
  avg_logFC Mdm2: 0.3283
  avg_logFC Metap2: 0.3686
  avg_logFC Mettl7a1: −0.3221
  avg_logFC Mien1: −0.3704
  avg_logFC Mki67ip: 0.3184
  avg_logFC Mocs2: −0.3467
  avg_logFC Mpc1: −0.2802
  avg_logFC Mrc1: 0.3404
  avg_logFC Mrp133: −0.2654
  avg_logFC Mrpl11: −0.2685
  avg_logFC Mrpl12: −0.3082
  avg_logFC Mrpl15: −0.2912
  avg_logFC Mrpl34: −0.2838
  avg_logFC Mrpl41: −0.2674
